Drawing on PubChem BioAssay AID624167 (Sanford-Burnham Center for Chemical Genomics, 2012), this text covers IC50 for eleven molecules.

Assay [1] is described as follows: Peg3 promoter luciferase inhibitors, potency, dose response, cell-based, HeLa, CREF/GAPDH counter-screen panel (AID 624167). Conditions: CREF/GAPDH counter-screens; GAPDH; mean of runs. For orientation: The purpose of a counterscreen is to sort out artefacts and off-target activity.
Assay [2] concerns PEG-3. The description is as above. As to conditions: HeLa PEG-Prom luciferase reporter, overnight, CREF/GAPDH counter-screens. A general note: In a reporter assay the amount or activity of a reporter protein is the signal.
For assay [3], the target named is PEG-3 (UniProt Q6IN02). Described as above. Conditions: HeLa PEG-Prom luciferase reporter, overnight, CREF/GAPDH counter-screens, mean of runs.
PEG-3 (UniProt Q6IN02), sequence (Q6IN02 whole entry, looked up): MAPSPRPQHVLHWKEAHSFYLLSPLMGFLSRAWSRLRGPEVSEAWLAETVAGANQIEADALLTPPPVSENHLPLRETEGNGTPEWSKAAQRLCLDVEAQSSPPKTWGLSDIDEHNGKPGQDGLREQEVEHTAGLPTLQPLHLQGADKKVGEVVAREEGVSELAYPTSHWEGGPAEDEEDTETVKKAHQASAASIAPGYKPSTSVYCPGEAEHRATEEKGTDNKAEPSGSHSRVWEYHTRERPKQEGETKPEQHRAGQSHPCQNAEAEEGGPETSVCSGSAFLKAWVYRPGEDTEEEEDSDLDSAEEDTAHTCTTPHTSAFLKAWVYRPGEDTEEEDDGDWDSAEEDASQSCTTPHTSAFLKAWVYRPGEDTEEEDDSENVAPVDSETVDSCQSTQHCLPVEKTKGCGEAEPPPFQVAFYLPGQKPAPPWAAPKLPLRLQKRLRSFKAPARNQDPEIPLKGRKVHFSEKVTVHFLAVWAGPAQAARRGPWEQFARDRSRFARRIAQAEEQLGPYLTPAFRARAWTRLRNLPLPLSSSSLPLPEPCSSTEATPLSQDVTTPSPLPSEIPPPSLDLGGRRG
The test system of assay [4] is Rat fibroblasts (CREF). Described as above. As to conditions: CREF/GAPDH counter-screens.
For assay [5], the system named is GAPDH. Described as above. As to conditions: CREF/GAPDH counter-screens.
Setting [6] is: run 1, dose range 1, individual replicate IC50 per panel.
The mark [7] stands for this setting: run 2, dose range 1, individual replicate IC50 per panel.

Activity calls are given as the source filed them.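 The calls were made as follows: active = mean IC50 for reducing PEG3 promoter reporter signal at or below a set limit, with IC50 above the limit in both counter screens; inactive = the rest, including counter screen hits.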

Usually IC50 stands for the concentration at which inhibition is half-maximal.

With `COc1ccc(/C=C2\SC(=S)N(CCCC(=O)NNC(=O)c3ccccc3O)C2=O)cc1`, the IC50 result in assay [1] is “inactive”. Moreover, the IC50 is 6.31 µM in assay [2] (setting [6]); 1.41 µM in assay [2] (setting [7]); 3.86 µM in assay [3]; 71.6 µM (inactive) in assay [4] (mean of runs); > 100 µM in assay [4] (setting [6]); 43.3 µM in assay [4] (setting [7]). For the same molecule, the IC50 in assay [5] (setting [6]) was 21.9 µM; in assay [5] (setting [7]), > 100 µM.
Regarding `C/C(=N\NC(=O)c1c(C)nc2ccccn12)c1ccc(O)cc1O`, the IC50 in assay [1] was > 100 µM (inactive); in assay [2] (setting [6]), 1.31 µM; in assay [2] (setting [7]) it was 0.534 µM; in assay [3], 0.922 µM; in assay [4] (mean of runs), 62.8 µM (inactive); in assay [4] (setting [6]), > 100 µM. Further, the IC50 in assay [4] (setting [7]) is 25.5 µM; in assay [5] (setting [6]) it was > 100 µM; in assay [5] (setting [7]), > 100 µM.
`Cc1ccc(-n2c(N)c(C(=O)Nc3c(C)n(C)n(-c4ccccc4)c3=O)c3nc4ccccc4nc32)cc1`: the IC50 is 27.5 µM in assay [1]; 9.84 µM in assay [2] (setting [6]); 5.21 µM in assay [2] (setting [7]); 7.52 µM in assay [3]; 43.3 µM in assay [4] (mean of runs); 37.1 µM in assay [4] (setting [6]). Also, the IC50 in assay [4] (setting [7]) stood at 49.4 µM; in assay [5] (setting [6]) it was 26.6 µM; in assay [5] (setting [7]), 28.5 µM.
For the molecule `C=CCc1cccc(/C=N/NC(=O)C(C)Nc2cccc(C)c2)c1O` (centres undefined), the IC50 in assay [1] is > 100 µM (inactive); in assay [2] (setting [6]), 12.2 µM; in assay [2] (setting [7]), 1.89 µM; in assay [3], 7.04 µM; in assay [4] (mean of runs) it was > 100 µM (inactive); in assay [4] (setting [6]), > 100 µM. The IC50 in assay [4] (setting [7]), in assay [5] (setting [6]) and in assay [5] (setting [7]) was > 100 µM throughout.
`NS(=O)(=O)c1ccc(CCNc2nn3c(-c4ccc(F)c(Cl)c4)cnc3s2)cc1`: the IC50 was 14.1 µM in assay [1]; 2.86 µM in assay [2] (setting [6]); 2.47 µM in assay [2] (setting [7]); 2.67 µM in assay [3]; > 100 µM (inactive) in assay [4] (mean of runs); > 100 µM in assay [4] (setting [6]). For the same molecule, the IC50 is > 100 µM in assay [4] (setting [7]), 12.9 µM in assay [5] (setting [6]) and 15.3 µM in assay [5] (setting [7]).
Consider `CS(=O)(=O)Nc1cccc(NC(=O)C2Cc3c(-c4ccccc4)ccnc3O2)c1` (centres undefined), for which the IC50 result in assay [1] was “inactive”. Also, the IC50 is 7.17 µM in assay [2] (setting [6]); 7.59 µM in assay [2] (setting [7]); 7.38 µM in assay [3]; > 100 µM (inactive) in assay [4] (mean of runs); > 100 µM in assay [4] (setting [6]); > 100 µM in assay [4] (setting [7]). Moreover, the IC50 in assay [5] (setting [6]) is > 100 µM; in assay [5] (setting [7]) it was 86.7 µM.
`COc1ccc(N(C(=O)CCl)C(C(=O)NC2CCCCC2)c2cccnc2)cc1` (centres undefined): the IC50 result in assay [1] is “inactive”. For the same molecule, the IC50 in assay [2] (setting [6]) is 6.62 µM; in assay [2] (setting [7]), 9.49 µM; in assay [3], 8.05 µM; in assay [4] (mean of runs) it was 2.68 µM; in assay [4] (setting [6]) it was 2.81 µM; in assay [4] (setting [7]), 2.56 µM. Further, the figures for the IC50 in assay [5] (setting [6]) and in assay [5] (setting [7]) were 40.4 µM and 39.6 µM, respectively.
`CCCC(=O)NC(c1ccc(C)cc1)c1ccc2cccnc2c1O` (centres undefined): in assay [1], the IC50 entry was “inactive”. Moreover, the IC50 in assay [2] (setting [6]) was 4.69 µM; in assay [2] (setting [7]) it was 7.19 µM; in assay [3] it was 5.94 µM; in assay [4] (mean of runs) it was > 100 µM (inactive); in assay [4] (setting [6]), > 100 µM; in assay [4] (setting [7]), > 100 µM. Moreover, the IC50 in assay [5] (setting [6]) was > 100 µM; in assay [5] (setting [7]), 74.7 µM.
Take `O=C(O)c1ccc(N/N=C/c2ccc(OC(=O)c3cccc(Cl)c3)cc2)cc1`: the IC50 in assay [1] is 3.23 µM; in assay [2] (setting [6]), 6.27 µM; in assay [2] (setting [7]) it was 12.9 µM; in assay [3], 9.61 µM; in assay [4] (mean of runs), > 100 µM (inactive); in assay [4] (setting [6]) it was > 100 µM. The figures for the half-inhibitory concentration (IC50) in assay [4] (setting [7]), in assay [5] (setting [6]) and in assay [5] (setting [7]) were > 100 µM, 0.554 µM and 5.92 µM, respectively.
On to `O=C(O)c1ccc(N/N=C/c2ccc3nccnc3c2)cc1`, for which the IC50 in assay [1] is 1.38 µM; in assay [2] (setting [6]), 1.26 µM; in assay [2] (setting [7]), 1.36 µM; in assay [3] it was 1.31 µM; in assay [4] (mean of runs), > 100 µM (inactive); in assay [4] (setting [6]) it was > 100 µM. Further, the results for the IC50 in assay [4] (setting [7]), in assay [5] (setting [6]) and in assay [5] (setting [7]) were > 100 µM, 1.36 µM and 1.41 µM, respectively.
For the molecule `COc1ccc(-n2cc(-c3ccccc3)c3c(N4CCOCC4)ncnc32)cc1`, the IC50 in assay [1] is 21.4 µM; in assay [2] (setting [6]), 12.1 µM; in assay [2] (setting [7]), 8.51 µM; in assay [3], 10.3 µM; in assay [4] (mean of runs), 68.5 µM (inactive); in assay [4] (setting [6]), 66.9 µM. Also, the IC50 in assay [4] (setting [7]) is 70.1 µM; in assay [5] (setting [6]) it was 21.3 µM; in assay [5] (setting [7]) it was 21.4 µM.
